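How tested: cells in 96-well plates exposed to compound for 48 hours at five concentrations. GI50 marks 50% less growth.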 Calls of active or inactive are those of the source. No stated cut-off is given here; in the data, active = GI50 up to about 1.1 µM and inactive = higher.
Columns and labels:
Assay in all cases: inhibition of tumour cell growth, NCI panel, 48 h
[1] = test system: HL-60
[2] = test system: HOP-92
[3] = test system: 786-0
[4] = test system: RPMI-8226
[5] = test system: SK-OV-3
[6] = test system: SF-295
[7] = test system: OVCAR-3
[8] = test system: PC-3
[9] = test system: OVCAR-4
[10] = test system: M14
[11] = test system: SK-MEL-5
[12] = test system: A498
[13] = test system: HCT-116
[14] = test system: MDA-N
[15] = test system: LOX IMVI
[16] = test system: CAKI-1
[17] = test system: SK-MEL-28
[18] = test system: Malme-3M
[19] = test system: RXF 393
[20] = test system: MCF7

Measured: GI50

CCCCOC(=O)C1CC[C@H]2[C@@H]3CCc4cc(OC(=O)c5cccc6c(=O)c7ccccc7[nH]c56)ccc4[C@H]3CC[C@]12C (some centres undefined)
inactive: [1] 5.86 µM | [2] 8.3 µM | [3] 9.89 µM | [4] 9.06 µM | [5] 9.86 µM | [6] 8.53 µM | [7] 8.47 µM | [8] 8.71 µM | [9] 7.78 µM | [10] 11.3 µM | [11] 6.46 µM | [12] 8.83 µM | [13] 9.31 µM | [14] 7.83 µM | [15] 8.83 µM | [16] 7.19 µM | [17] 11 µM | [18] 10.9 µM | [19] 9.48 µM | [20] 13.3 µM

CC(=O)O[C@H]1CC[C@@]2(C)C(=CC[C@@H]3[C@@H]2CC[C@]2(C)C(=O)/C(=C\c4ccccc4)C[C@@H]32)C1
inactive: [2] > 100 µM | [3] > 100 µM | [4] > 100 µM | [5] > 100 µM | [6] > 100 µM | [7] 61.9 µM | [8] 64.7 µM | [9] > 100 µM | [10] > 100 µM | [11] 39.4 µM | [12] > 100 µM | [13] 96.2 µM | [14] > 100 µM | [15] > 100 µM | [16] > 100 µM | [17] > 100 µM | [18] 89.9 µM | [19] 40.5 µM | [20] > 100 µM

Cn1c2n/c(=N\c3ccc(Cl)cc3)[n+]3ccc4ccccc4c3c-2c([O-])n1-c1ccccc1
inactive: [1] > 100 µM | [3] > 100 µM | [4] > 100 µM | [6] > 100 µM | [7] > 100 µM | [8] > 100 µM | [9] > 100 µM | [11] > 100 µM | [12] > 100 µM | [13] > 100 µM | [14] > 100 µM | [15] > 100 µM | [16] 46.3 µM | [17] > 100 µM | [18] > 100 µM | [19] > 100 µM | [20] > 100 µM

O=C1Nc2ccccc2/C1=N/Nc1ccc([N+](=O)[O-])cc1[N+](=O)[O-]
inactive: [1] > 100 µM | [2] 3.58 µM | [3] 9.25 µM | [4] 26.1 µM | [5] 12.1 µM | [6] 8.77 µM | [7] 3.13 µM | [8] 12.9 µM | [9] 10 µM | [10] 12.9 µM | [11] 10.6 µM | [12] 22.4 µM | [13] 17.9 µM | [14] 44.3 µM | [15] 6.78 µM | [16] 20.4 µM | [17] 63 µM | [19] 13.6 µM | [20] 8.67 µM

Cc1ccc(NC(=O)S(N)(c2ccc(C)cc2)[N+](=O)[O-])cc1 (centres undefined)
inactive: [1] 10 µM | [2] > 100 µM | [4] > 100 µM | [5] > 100 µM | [6] > 100 µM | [7] > 100 µM | [8] > 100 µM | [9] > 100 µM | [10] > 100 µM | [11] > 100 µM | [12] > 100 µM | [13] > 100 µM | [14] > 100 µM | [15] > 100 µM | [16] > 100 µM | [17] > 100 µM | [18] > 100 µM | [19] > 100 µM | [20] > 100 µM

— ChEMBL document CHEMBL1201862, “PubChem BioAssay data set” (2004)
